SMILES strings stand for the structures.

This data set is described as follows: in vitro. The settings on record: human, hela cells, % viability.

In general, viability refers to a read-out of living cells in per cent, often relative to untreated cells. Take `CS(=O)(=O)Nc1cc2cccnc2c(-c2ccccc2)n1` [CBK061928]: the viability at 28.5 h, 10 µM is 95.5%. The same measure, in the same setting: for `COC[C@@H]1OC[C@@]2(C)C3CC[C@@H](O)[C@@H](CC(=O)N4CCCCC4)[C@]3(C)CC[C@H]2O1` (some centres unmarked) [CBK289573] the value was 88.3%; for `CCCC/C=C/c1nccnc1N[C@@H](CO)C(C)C` [CBK037514], 101%; for `Cc1nc(SCC(=O)O)nc(O)c1CCC(C)C` [CBK269920], 92.9%. On to `O=C(NCc1ccco1)C1(c2ccccc2)CCCC1` [CBK149539], for which the viability at 28.5 h, 10 µM stood at 96%. On to `COCCn1c(CO)nnc1[C@H]1C[C@@H](NC(=O)c2cc(O)ccc2F)C1` [CBK307698], for which the viability at 28.5 h, 10 µM is 90.4%. For the compound `COc1ccc(NC(=O)C2CN(S(=O)(=O)c3ccccc3)CCN2S(=O)(=O)c2ccccc2)cc1` (centres unmarked) [CBK262500], the viability at 28.5 h, 10 µM was 98.5%. Take `CC1CCCC(C)N1C(=O)Cn1c(=O)n(C)c2ncccc21` (centres unmarked) [CBK282389]: the viability at 28.5 h, 10 µM came out at 107%. Still for that read-out and setting: for `O=C(OCC=C=CSc1ccc([N+](=O)[O-])cc1)c1ccc(F)cc1` [CBK265650] the value was 117%. In the case of `CCOc1cc(CNC2C3CC4CC(C3)CC2C4)cc(Cl)c1OCC(N)=O` (centres unmarked) [CBK265734C], the viability at 28.5 h, 10 µM was found to be 103%. As to `Cc1ccc(S(=O)(=O)N/N=C/C=C/c2ccc(N(C)C)cc2)cc1` [CBK265078], the viability at 28.5 h, 10 µM came out at 99.7%. Regarding `O=C(c1cc(F)c(F)cc1F)N1CCC2(CCN(Cc3cc(=O)[nH]c(=O)[nH]3)C2)C1` (centres unmarked) [CBK132141], the viability at 28.5 h, 10 µM was 91.4%.

Take `Cc1c(C(=O)O)sc(S(=O)(=O)N2CCN(C(=O)CC(C)c3ccccc3)CC2)c1C(=O)O` (centres unmarked) [CBK297143]: the viability at 28.5 h, 10 µM was 97.4%. With `N#Cc1ccc(C(=O)Nc2nnc(C3=COCCO3)o2)cc1` [CBK287411], the viability at 28.5 h, 10 µM came out at 83.3%. On the same count and under the same terms, the result for `CC(C)(C)NS(=O)(=O)c1ccc(NC(=O)c2cc(-c3ccccn3)nc3c(Cl)cccc23)cc1` [CBK267783] reads 99.6%. Consider `Cc1cccc(/C=C2/SC(=S)N(CC(=O)O)C2=O)n1` [CBK265146], for which the viability at 28.5 h, 10 µM came out at 82.9%. For the compound `Cc1ccc(C(=O)Nc2nc3ccc(S(=O)(=O)N(C)C)cc3s2)cc1` [CBK287603], the viability at 28.5 h, 10 µM is 93.1%. `O=C1CCCN1CCOc1nccnc1-c1ccsc1` [CBK106759]: the viability at 28.5 h, 10 µM is 89.7%.

As for `COc1cc(C(=O)N2CCC3(CC2)CC(=O)c2ccc(-c4ccc(NS(C)(=O)=O)cc4)cc2O3)cc(OC)c1C` [CBK170163], the viability at 28.5 h, 10 µM came to 90.8%. The same measure, in the same setting: for `O=C(C[C@@H]1O[C@H](CNCc2cccc(Cl)c2)[C@@H](O)[C@H]1O)N1CCCC1` [CBK288914] the value was 95%; for `CC(C)NC(=O)N1CC[C@H](c2nc3ncccc3[nH]2)C1` [CBK289369], 101%. On the same count and under the same terms, the result for `CC1CCCN(C(=S)NC2CC3CCC2C3)C1` (centres unmarked) [CBK085999] reads 92.7%; that for `CCC(Cn1ccnc1)NS(=O)(=O)c1cc(-n2cccn2)ccc1OC` (centres unmarked) [CBK307483], 87.8%; that for `Cn1nccc1C(=O)C1CCN(C(=O)c2cccc(F)c2)CC1` [CBK284426], 89.2%. The same measure, in the same setting: the result for `Cc1noc2nc(-c3ccco3)cc(C(=O)NCc3nc4ccccc4[nH]3)c12` [CBK295608] reads 93.5%. Consider `Cc1cc2oc(C(=O)Nc3sc4c(c3C#N)CCCC4)c(C)c2cc1C` [CBK266301], for which the viability at 28.5 h, 10 µM was determined as 103%. On the same count and under the same terms, for `O=C(Cn1cc(-c2ccc(CN3CCOCC3)cc2)nn1)NCc1cccc(C(F)(F)F)c1` [CBK165803] the value was 87.5%.

Take `Cc1nc2ccc(C(=O)NCCN3CCc4ccccc43)cc2[nH]1` [CBK283280]: the viability at 28.5 h, 10 µM turned out to be 94.2%. Regarding `Cc1ccc(NC(=O)N(Cc2ccc3ccccc3c2)CC2CCNCC2)cc1[N+](=O)[O-]` [CBK049771], the viability at 28.5 h, 10 µM amounted to 100%. On the same count and under the same terms, for `CC(C)NC(=O)c1cc(C2CN(C(=O)CCc3ccccc3F)CCO2)nc2ccccc12` (centres unmarked) [CBK285893] the value was 109%; for `CCn1c(SCC(=O)NC2CC2)nc2ccccc21` [CBK305864], 117%. On the same count and under the same terms, the result for `O=C(c1ccccc1F)N1CCC(O)(c2ccc(F)cc2)CC1` [CBK281943] reads 80.9%; that for `NS(=O)(=O)c1ccc(CCNCc2ccc3c(c2)OCO3)cc1` [CBK269819C], 88.5%; that for `O=C([C@H]1CN2CCC1C[C@@H]2Cn1cc(COc2ccccc2)nn1)N1CCOCC1` (some centres unmarked) [CBK288734], 113%. On the same count and under the same terms, for `Cc1ccc(C)n1-c1ccc(C(=O)OCC(=O)c2cccc([N+](=O)[O-])c2)cc1` [CBK264427] the value was 97.8%. Take `Cc1nc(C)c(C(=O)NCC(C)(C)N2CCCCC2)o1` [CBK281866]: the viability at 28.5 h, 10 µM worked out at 94.2%. Same read-out and setting: for `COc1ccc(-c2cc(=O)[nH]c(N3CCN(C)CC3)n2)cc1` [CBK003849] the value was 90.4%.

On to `CCN1C(=O)/C(=C\c2ccc(-c3cccc(C(=O)O)c3C)o2)C(=O)N(c2ccc(Cl)cc2)C1=S` [CBK265270], for which, where the note is “bulk resorufin, single well”, the viability at 28.5 h, 10 µM came out at 99.9%. For `CCN(CCO)C(=O)c1coc(COc2ccc3sc(C)nc3c2)n1` [CBK307321], the viability at 28.5 h, 10 µM worked out at 89.7%. Still for that read-out and setting: for `CCc1nc2c(C(=O)NCCNC(C)=O)cnn2c(CC)c1Cc1ccc(Cl)cc1` [CBK165730] the value was 86%; for `Cc1cc2nc(C(=O)NCCCn3ccnc3C(C)C)cc(C)n2n1` [CBK307022], 90.5%; for `N=C1/C(=C/c2cn(Cc3ccccc3)c3ccccc23)C(=O)N=C2SC(COc3ccccc3)=NN12` [CBK264150], 114%. On the same count and under the same terms, for `CCn1c(C)c(/C=C/c2nc3ccccc3c(=O)n2CCCO)c2ccccc21` [CBK268099] the value was 95.7%; for `CSCCOc1nccnc1N1CCCC1` [CBK115757], 120%; for `Cc1ccc(C2(C(=O)N3CCC(O)(c4ccccn4)CC3)CC2)cc1` [CBK283754], 96.4%. As for `Cc1ccc(NC2(C#N)C(=O)Nc3ccccc32)cc1C` (centres unmarked) [CBK116388], the viability at 28.5 h, 10 µM came to 114%.

On to `FC(F)(F)c1ccc(N2CCNCC2)nc1OCc1ccc2c(c1)OCCO2` [CBK003994A], for which the viability at 28.5 h, 10 µM turned out to be 113%. Same read-out and setting: the result for `O=C1CN(C(=O)c2cccc(Cl)c2)c2ccccc2N1` [CBK017844] reads 101%. Still for that read-out and setting: for `O=C1CC2(CCNCC2)Oc2c1ccc1ccccc21` [CBK282714] the value was 93%. On the same count and under the same terms, for `CCn1c(=O)n(CC(=O)N(C)C2CCCCC2)c2cccnc21` [CBK283786] the value was 86.3%.

Take `CC(C)c1noc([C@@H]2C[C@H](NS(=O)(=O)c3ccc(F)cc3)CN2C)n1` [CBK288864]: the viability at 28.5 h, 10 µM was 114%. Turning to `Cc1cc(CCCC(=O)NCc2ccc(-c3ccc(C(N)=O)c(C)n3)cc2)ccc1F` [CBK286016], the viability at 28.5 h, 10 µM came to 90.3%. Take `Oc1cnnc(Nc2ccc(Nc3ccccc3)cc2)n1` [CBK287921]: the viability at 28.5 h, 10 µM was 101%. Turning to `COc1ccc(N(CC(=O)O)S(=O)(=O)c2ccccc2)c(OC)c1` [CBK262415], the viability at 28.5 h, 10 µM stood at 108%. On the same count and under the same terms, the result for `OCCN1CC2(CCN(CC3COc4ccccc4O3)CC2)c2ccccc21` (centres unmarked) [CBK143955] reads 86.7%; that for `CN(c1cc(F)ccc1[N+](=O)[O-])S(=O)(=O)c1ccccc1` [CBK001369], 97.5%. Take `COc1ccc(S(=O)(=O)N2CCN(C)CC2)cn1` [CBK269511]: the viability at 28.5 h, 10 µM amounted to 85.9%.

Regarding `COC(=O)CN1CCCC[C@H]2CN(C(=O)Cc3ccsc3)C[C@H]21` [CBK285509], the viability at 28.5 h, 10 µM was 111%. In the case of `CC(C)c1ccc(C(C)NC(=O)Cn2cccc(C(=O)NC3CCCCC3)c2=O)cc1` (centres unmarked) [CBK286044], the viability at 28.5 h, 10 µM is 119%.

As for `C#CCN1CC[C@]2(c3ccc(OC)c(OC)c3)CC[C@@H](NC(=O)Nc3ccc(F)c(F)c3)C[C@H]12` [CBK056657], the viability at 28.5 h, 10 µM came out at 104%.

As for `CCCn1nnc(NC(=O)C(C)Oc2ccc(Cl)cc2Cl)n1` (centres unmarked) [CBK266772], the viability at 28.5 h, 10 µM stood at 98.6%. The same measure, in the same setting: the result for `Cc1ccc(OCC(=O)Nc2ccc(N3CCN(Cc4ccccc4)CC3)cc2)cc1C` [CBK266085] reads 101%. The same measure, in the same setting: for `Cc1cccc(-n2c(C#N)c(O)c3ccccc32)c1C` [CBK115319] the value was 106%. With `O=C(O)c1ccc(NC(=O)c2ccc(S(=O)(=O)N3CCCCC3)cc2)cc1` [CBK267813], the viability at 28.5 h, 10 µM is 94.2%. Take `COc1ccccc1CC(=O)NNC(=O)c1ccco1` [CBK262956]: the viability at 28.5 h, 10 µM was determined as 91.6%. On to `CC1(C)CC(=O)C2=C(C1)c1c(ccc3ccccc13)NC2c1ccc(-c2ccc(O)c(C(=O)O)c2)o1` (centres unmarked) [CBK261823], for which the viability at 28.5 h, 10 µM worked out at 108%. On the same count and under the same terms, for `COc1ccc(-c2nc(=S)c3c(n2CCCN(C)C)CC(C)(C)OC3)cc1` [CBK267844] the value was 104%; for `O=C(Nc1ccccc1C(=O)O)c1ccc(Cl)c(S(=O)(=O)N2CCCCC2)c1` [CBK261763], 113%. Same read-out and setting: the result for `O=C(NC(c1ccc(Cl)cc1)c1cccnc1)C1CCN(C(=O)c2ccco2)CC1` (centres unmarked) [CBK059708] reads 92.4%; that for `Cc1onc(-c2ccccc2)c1C(=O)Nc1ccc(N2CCNCC2)c2ccccc12` [CBK038942T], 87%; that for `COc1ccc(-c2ccc(CCC(=O)O)n2CCc2ccccc2)cc1` [CBK265929], 115%. Still for that read-out and setting: the result for `O=C1N=C(NCC2CCCCC2)OC1Cc1ccccc1` (centres unmarked) [CBK067023] reads 94.1%; that for `Nc1nc(OCCOc2ccccc2)cnc1-c1ccc2c(c1)OCO2` [CBK145097], 83.4%; that for `O=C(C1CC1)N1CCC[C@H]1Cn1nc(-c2ccc(F)cc2)ccc1=O` [CBK284252], 79.8%.

In the case of `COc1ccc(CN2CCCN(c3ccnc(OCC4COc5ccccc5O4)n3)CC2)cc1` (centres unmarked) [CBK083234T], the viability at 28.5 h, 10 µM came out at 96.8%. On to `Cc1ccc(C(=O)NC(C)c2nnc(SCC(=O)c3ccc(Br)cc3)n2C)cc1` (centres unmarked) [CBK266183], for which the viability at 28.5 h, 10 µM was determined as 93.8%. Same read-out and setting: the result for `CCN1C(=O)COC[C@@H]1[C@H](O)c1ccc(NC(=O)c2ccc(C#N)cc2)cc1` [CBK289689] reads 91.6%.

For the origin of these results see PMC12040169 (PLOS Biology, 2025).
